Experimental data taken from patent US11912686B2 (Gilead Sciences, Inc., priority 2020, dated 2024).

target: human LPAR1 (Homo sapiens (Human), UniProt Q92633); assay: LPAR1 intracellular calcium mobilization assay (antagonist mode, FLIPR); format: cell-based; details: CHO-K1 EDG2 cells expressing human LPAR1, LPA 18:2 at EC80 (100 nM), test compound 0.5 nM to 10 μM
Sequence (Q92633 whole entry): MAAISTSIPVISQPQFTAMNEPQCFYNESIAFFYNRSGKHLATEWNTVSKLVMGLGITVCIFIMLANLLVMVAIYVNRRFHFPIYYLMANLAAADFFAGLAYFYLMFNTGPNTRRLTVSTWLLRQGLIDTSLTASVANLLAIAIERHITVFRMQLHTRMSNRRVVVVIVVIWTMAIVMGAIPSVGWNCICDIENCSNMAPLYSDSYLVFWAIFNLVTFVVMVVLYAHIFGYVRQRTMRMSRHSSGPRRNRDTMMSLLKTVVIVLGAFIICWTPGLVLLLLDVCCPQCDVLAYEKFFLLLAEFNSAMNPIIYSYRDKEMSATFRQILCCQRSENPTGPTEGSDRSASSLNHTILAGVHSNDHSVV

In order of rising EC50:
1. C[C@@H](OC(=O)Nc1c(-c2ccc(NC(=O)C3(C)CC(F)(F)C3)cn2)nnn1C)c1cccnc1Cl [Compound 144, (R)-1-(2-chloropyridin-3-yl)ethyl (4-(5-(3,3-difluoro-1-methylcyclobutane-1-carboxamido)pyridin-2-yl)-1-methyl-1H-1,2,3-triazol-5-yl)carbamate]  36.1 nM
2. CO[C@]1(C#N)C[C@H](C(=O)Nc2ccc(-c3nnn(C)c3NC(=O)O[C@H](C)c3cccnc3Cl)nc2)C1 [Compound 138, (R)-1-(2-chloropyridin-3-yl)ethyl (4-(5-((1s,3S)-3-cyano-3-methoxycyclobutane-1-carboxamido)pyridin-2-yl)-1-methyl-1H-1,2,3-triazol-5-yl)carbamate]  84.9 nM
3. C[C@@H](OC(=O)Nc1c(-c2ccc(NC(=O)C3(C#N)C(C#N)C3(C)C)cn2)nnn1C)c1cccnc1Cl (stereo partly drawn) [Compound 145, (R)-1-(2-chloropyridin-3-yl)ethyl (4-(5-(1,3-dicyano-2,2-dimethylcyclopropane-1-carboxamido)pyridin-2-yl)-1-methyl-1H-1,2,3-triazol-5-yl)carbamate]  184 nM
4. CC(C#N)C(=O)Nc1ccc(-c2nnn(C)c2NC(=O)O[C@H](C)c2cccnc2Cl)nc1 (stereo partly drawn) [Compound 143, (R)-1-(2-chloropyridin-3-yl)ethyl (4-(5-(2-cyanopropanamido)pyridin-2-yl)-1-methyl-1H-1,2,3-triazol-5-yl)carbamate]  189 nM
5. C[C@@H](OC(=O)Nc1c(-c2ccc(NC(=O)C3CCC3C#N)cn2)nnn1C)c1cccnc1Cl (stereo partly drawn) [Compound 142, (R)-1-(2-chloropyridin-3-yl)ethyl (4-(5-(2-cyanocyclobutane-1-carboxamido)pyridin-2-yl)-1-methyl-1H-1,2,3-triazol-5-yl)carbamate]  217 nM
6. C[C@@H](OC(=O)Nc1c(-c2ccc(NC(=O)C3(C#N)CC3(C)C)cn2)nnn1C)c1cccnc1Cl (stereo partly drawn) [Compound 146, (R)-1-(2-chloropyridin-3-yl)ethyl (4-(5-(1-cyano-2,2-dimethylcyclopropane-1-carboxamido)pyridin-2-yl)-1-methyl-1H-1,2,3-triazol-5-yl)carbamate]  271 nM
7. C[C@@H](OC(=O)Nc1c(-c2ccc(NC(=O)[C@H]3C[C@](O)(C#N)C3)cn2)nnn1C)c1cccnc1Cl [Compound 140, (R)-1-(2-chloropyridin-3-yl)ethyl (4-(5-((1s,3S)-3-cyano-3-hydroxycyclobutane-1-carboxamido)pyridin-2-yl)-1-methyl-1H-1,2,3-triazol-5-yl)carbamate]  349 nM
8. C[C@@H](OC(=O)Nc1c(-c2ccc(NC(=O)C3(C#N)CC(=O)C3)cn2)nnn1C)c1cccnc1Cl [Compound 141, (R)-1-(2-chloropyridin-3-yl)ethyl (4-(5-(1-cyano-3-oxocyclobutane-1-carboxamido)pyridin-2-yl)-1-methyl-1H-1,2,3-triazol-5-yl)carbamate]  459 nM
9. C[C@@H](OC(=O)Nc1c(-c2ccc(NC(=O)C3CC(O)(C(F)(F)F)C3)cn2)nnn1C)c1cccnc1Cl (stereo partly drawn) [Compound 136, (R)-1-(2-chloropyridin-3-yl)ethyl (4-(5-(3-hydroxy-3-(trifluoromethyl)cyclobutane-1-carboxamido)pyridin-2-yl)-1-methyl-1H-1,2,3-triazol-5-yl)carbamate]  602 nM
10. C[C@@H](OC(=O)Nc1c(-c2ccc(NC(=O)C3(C#N)CC(O)C3)cn2)nnn1C)c1cccnc1Cl (stereo partly drawn) [Compound 135, (R)-1-(2-chloropyridin-3-yl)ethyl (4-(5-(1-cyano-3-hydroxycyclobutane-1-carboxamido)pyridin-2-yl)-1-methyl-1H-1,2,3-triazol-5-yl)carbamate]  726 nM
11. C[C@@H](OC(=O)Nc1c(-c2ccc(NC(=O)[C@@H]3C[C@@H]3C#N)cn2)nnn1C)c1cccnc1Cl [Compound 137, (R)-1-(2-chloropyridin-3-yl)ethyl (4-(5-((1R,2S)-2-cyanocyclopropane-1-carboxamido)pyridin-2-yl)-1-methyl-1H-1,2,3-triazol-5-yl)carbamate]  1090 nM
